From patent US20100216772A1, “Novel Phenantridine Analogues and Uses Thereof” (priority 2004, published 2010)

Experiments:
HaCaT keratinocytes = test: Influence of compounds on keratinocyte proliferation (Cell Titer Viability Assay); type: cell-based; settings: Homo sapiens, 25 μM test compound, 48 hrs, compared to control experiments
Experimental: 5×10^3 HaCaT keratinocytes were seeded into 60 wells of 96 well plates in 200 μl KBM/10% FCS and incubated for 24 hrs at 37° C. The test compounds were dissolved at 100 mM in DMSO. The test items were then diluted to a concentration of 25 μM in KBM/FCS with a final concentration of 1% DMSO. The test compounds, as well as the negative control for unstimulated cells (KBM/1% DMSO) and stimulated cells (KBM/FCS/1% DMSO), were added to the HaCaTs in triplicates and incubated for 48 hrs. At the end of the incubation period, the media was removed and cell numbers were determined with Cell Titer Viability Assay from Promega (#G7571/G7572) according to the manufacturer's instructions.

[1] = test system: Peripheral blood mononuclear cells (PBMCs); test: Influence of compounds on T cell proliferation ([3H]-Thymidin, anti-CD3-stimulated PBMCs); type: cell-based; settings: PBMC, three different human donors
From the text: Peripheral blood mononuclear cells (PBMCs) were isolated from peripheral blood by Ficoll gradient centrifugation. […] Subsequently, the cells were washed three times with PBS and were resuspended in 96-well plates in a concentration of 2×10^5 cells/well. […] As positive and negative controls, PBMCs, stimulated with soluble anti-CD3-antibody, and non-stimulated PBMCs plus 0,1% DMSO were used. The addition of 0,1% DMSO had no effect on the proliferation rate. […] The cells were harvested using a Mikro 96 Harvester (Skatron Instruments, Lier, Norwegen). The cpm-values indicative for proliferation were determined using a Packard Matrix 9600 Counter (Canberra Packard, Schwadorf, Österreich). The experiments were made with three different human donors.
In order to determine the EC50 of test compounds, the value of anti-CD3-stimulated cells plus 0,1% DMSO was set as 100%. All other values were divided by the 100% value in order to obtain a relative percentage of inhibition. The obtained percentage values were used to determine the EC50 values using Sigma Plot.

Row | Structure (SMILES) | inhibition at 25 µM (HaCaT keratinocytes) [%] | EC50 [1] [µM]
1 | CC(=O)N1c2ccccc2-c2ccccc2C1c1c[nH]c2ccccc12 (centres unmarked) [Example 3, 1-[6-(1H-Indol-3-yl)-6H-phenanthridin-5-yl]-ethanone] | > 50 | < 25
2 | O=C(c1cccc(C(F)(F)F)c1)N1c2ccccc2-c2ccccc2C1c1c[nH]c2ccccc12 (centres unmarked) [Example 14, [6-(1H-Indol-3-yl)-6H-phenanthridin-5-yl]-(3-trifluoromethyl-phenyl)-methanone] | > 50 | 
3 | Cc1ccc(S(=O)(=O)N2c3ccccc3-c3ccccc3C2c2ccc3c(c2)OCO3)cc1 (centres unmarked) [Example 76, 6-Benzo[1,3]dioxol-5-yl-5-(toluene-4-sulfonyl)-5,6-dihydro-phenanthridine] |  | < 25
4 | O=C1CN(S(=O)(=O)c2cc(C(F)(F)F)cc(C(F)(F)F)c2)c2ccccc2-c2ccccc21 [Example 84, 5-(3,5-Bis-trifluoromethyl-benzenesulfonyl)-5,6-dihydro-dibenzo[b,d]azepin-7-one] |  | < 25
5 | O=C(CCc1ccccc1)N1c2ccccc2-c2ccccc2C1c1c[nH]c2ccccc12 (centres unmarked) [Example 35, 1-[6-(1H-Indol-3-yl)-6H-phenanthridin-5-yl]-3-phenyl-propan-1-one] | > 50 | 
6 | Cc1ccc(C(=O)n2c(=O)c3ccccc3c3ccccc32)cc1 [Example 77, 5-(4-Methyl-benzoyl)-5H-phenanthridin-6-one] |  | < 25
7 | CN(C)c1ccc(C(=O)N2c3ccccc3-c3ccccc3C2c2c[nH]c3ccccc23)cc1 (centres unmarked) [Example 6, (4-Dimethylamino-phenyl)-[6-(1H-indol-3-yl)-6H-phenanthridin-5-yl]-methanone] | > 50 | 
8 | O=C1CN(S(=O)(=O)c2ccc(Br)cc2)c2ccccc2-c2ccccc21 [Example 82, 5-(4-Bromo-benzenesulfonyl)-5,6-dihydro-dibenzo[b,d]azepin-7-one] |  | < 25
9 | CC(=O)Nc1ccc(S(=O)(=O)N2CC(=O)c3ccccc3-c3ccccc32)cc1 [Example 81, N-[4-(7-Oxo-6,7-dihydro-dibenzo[b,d]azepine-5-sulfonyl)-phenyl]-acetamide] |  | < 25
10 | O=C(c1ccc(C(F)(F)F)cc1)N1c2ccccc2-c2ccccc2C1c1c[nH]c2ccccc12 (centres unmarked) [Example 7, [6-(1H-Indol-3-yl)-6H-phenanthridin-5-yl]-(4-trifluoromethyl-phenyl)-methanone] | > 50 | 
11 | O=C(c1cc(C(F)(F)F)cc(C(F)(F)F)c1)N1c2ccccc2-c2ccccc2C1c1c[nH]c2ccccc12 (centres unmarked) [Example 17, (3,5-Bis-trifluoromethyl-phenyl)-[6-(1H-indol-3-yl)-6H-phenanthridin-5-yl]-methanone] | > 50 | 
12 | O=C(c1ccco1)N1c2ccccc2-c2ccccc2C1c1c[nH]c2ccccc12 (centres unmarked) [Example 23, Furan-2-yl-[6-(1H-indol-3-yl)-6H-phenanthridin-5-yl]-methanone] | > 50 | < 25
13 | O=C1CN(S(=O)(=O)c2ccc([N+](=O)[O-])cc2)c2ccccc2-c2ccccc21 [Example 83, 5-(4-Nitro-benzenesulfonyl)-5,6-dihydro-dibenzo[b,d]azepin-7-one] |  | < 25
14 | CCCC(C)C(=O)N1c2ccccc2-c2ccccc2C1c1c[nH]c2ccccc12 (centres unmarked) [Example 28, 1-[6-(1H-Indol-3-yl)-6H-phenanthridin-5-yl]-2-methyl-pentan-1-one] | > 50 | < 25
15 | CC(C)C(=O)N1c2ccccc2-c2ccccc2C1c1c[nH]c2ccccc12 (centres unmarked) [Example 26, 1-[6-(1H-Indol-3-yl)-6H-phenanthridin-5-yl]-2-methyl-propan-1-one] | > 50 | < 25
16 | O=C(c1ccccc1)N1c2ccccc2-c2ccccc2C1c1c[nH]c2ccccc12 (centres unmarked) [Example 4, [6-(1H-Indol-3-yl)-6H-phenanthridin-5-yl]-phenylmethanone] | > 50 | 
17 | Cc1ccc(S(=O)(=O)N2CC(=O)c3ccccc3-c3ccccc32)cc1 [Example 78, 5-(Toluene-4-sulfonyl)-5,6-dihydro-dibenzo[b,d]azepin-7-one] | > 50 | < 25
18 | O=C(CCC1CCCCC1)N1c2ccccc2-c2ccccc2C1c1c[nH]c2ccccc12 (centres unmarked) [Example 34, 3-Cyclohexyl-1-[6-(1H-indol-3-yl)-6H-phenanthridin-5-yl]-propan-1-one] | > 50 | 
19 | O=C(c1ccc(Cl)nc1)N1c2ccccc2-c2ccccc2C1c1c[nH]c2ccccc12 (centres unmarked) [Example 20, (6-Chloro-pyridin-3-yl)-[6-(1H-indol-3-yl)-6H-phenanthridin-5-yl]-methanone] | > 50 | 
20 | O=C(c1cccnc1Cl)N1c2ccccc2-c2ccccc2C1c1c[nH]c2ccccc12 (centres unmarked) [Example 21, (2-Chloro-pyridin-3-yl)-[6-(1H-indol-3-yl)-6H-phenanthridin-5-yl]-methanone] | > 50 | < 25
21 | O=C(c1cccc(F)c1)N1c2ccccc2-c2ccccc2C1c1c[nH]c2ccccc12 (centres unmarked) [Example 12, (3-Fluoro-phenyl)-[6-(1H-indol-3-yl)-6H-phenanthridin-5-yl]-methanone] | > 50 | < 25
22 | O=C1CN(S(=O)(=O)c2cccs2)c2ccccc2-c2ccccc21 [Example 86, 5-(Thiophene-2-sulfonyl)-5,6-dihydro-dibenzo[b,d]azepin-7-one] |  | < 25
23 | O=C(C1CCC1)N1c2ccccc2-c2ccccc2C1c1c[nH]c2ccccc12 (centres unmarked) [Example 30, Cyclobutyl-[6-(1H-indol-3-yl)-6H-phenanthridin-5-yl]-methanone] | > 50 | 
24 | O=C1CN(S(=O)(=O)c2ccccc2)c2ccccc2-c2ccccc21 [Example 79, 5-Benzenesulfonyl-5,6-dihydro-dibenzo[b,d]azepin-7-one] |  | < 25
25 | COC(=O)N1c2ccccc2-c2ccccc2C1c1c[nH]c2ccccc12 (centres unmarked) [Example 36, 6-(1H-Indol-3-yl)-6H-phenanthridine-5-carboxylic acid methyl ester] | > 50 | 
